Holding throughout (type): cell-based, Human
Series [1] concerns BE(2)-C. The experiment in a line: Drug interactions assay (Chou-Talalay CI, DRI). Particulars: topotecan dose axis, 48 hours. As for the experimental part:
(§1) Drug interactions between XIAP-specific antagonist A4 and vincristine or topotecan were determined using the combination index (CI) by Chou and Talalay which was established on the basis of the mass-action law principle to derive the median-effect equation ([25]). […] Cell viability was measured and CI and dose reduction index (DRI) values were quantified using the CompuSyn software by Chou–Talalay. Areas under the dose–response curves were calculated using the trapezoidal method and compared using paired t test.
(§2) For treatment of high-risk neuroblastoma, current standard-of-care utilizes intensive multimodal therapy involving combinations of multiple cytotoxic agents. […] To analyze potential drug interactions, treatment of BE(2)-C and KELLY cells with A4 in combination with either vincristine or topotecan was examined. Using Chou–Talalay method, the drug interaction effect/type determined by the drug combination (CI) index is as follows: CI <1 (synergistic effect); CI = 1 (additive effect); CI >1 (antagonistic effect).
(§3) CI was generated using CompuSyn software by Chou–Talalay ([25]). CI60–90 represents the average CI at 60%–90% cell death. CI <1 denotes synergistic effect; CI = 1 denotes addictive effect and CI >1 denotes antagonistic effect. […] DRI was generated using CompuSyn software by Chou–Talalay. DRI60–90 represents the average DRI at 60%–90% cell death. DRI <1 denotes unfavorable dose reduction and DRI >1 denotes favorable dose reduction.

For series [2], the system named is KELLY. Nature of the series: Drug interactions assay (Chou-Talalay CI, DRI). The settings on record: topotecan dose axis, 48 hours. As for the experimental part:
as §1, §2, §3

Series [3] concerns BE(2)-C. Nature of the series: RealTime-Glo MT cell viability assay. Particulars: Homo sapiens. As for the experimental part: (§4) Cell viability was measured in real time using RealTime-Glo MT Cell Viability Assay as according to manufacturer's instructions from Promega. Cells were seeded at 1 × 10^4 cells per well and treated with a range of doses of indicated antagonists, followed by continuous bioluminescence reading every 24 hours for 3 days using luminescent plate reader, Varioskan (SkanIT software). IC50 was determined using GraphPad Prism software.
(§5) To determine their efficacy in neuroblastoma, a panel of neuroblastoma cell lines including neuroblastoma patient-derived cell lines and noncancerous normal tissue-derived cell lines were treated with increasing doses of each antagonist (0–100 µmol/L), followed by real-time measurement of cell viability every 24 for 72 hours.

In the next series the test system is CHP212. Nature of the series: RealTime-Glo MT cell viability assay. The settings on record: Homo sapiens, CHP-212. As for the experimental part:
as §4, §5

Another series has as its system IMR-32. Nature of the series: RealTime-Glo MT cell viability assay. Particulars: Homo sapiens. As for the experimental part:
as §4, §5

The subject of series [4] is KELLY. Nature of the series: RealTime-Glo MT cell viability assay. Particulars: Homo sapiens. As for the experimental part:
as §4, §5

A further series deals with NB1. Nature of the series: RealTime-Glo MT cell viability assay. The settings on record: Homo sapiens. The protocol:
as §4, §5

Series [5] has as its system NBL-07-0317 patient-derived neuroblastoma cells. The experiment in a line: RealTime-Glo MT cell viability assay. Particulars: Homo sapiens, Neuroblastoma cell. The protocol: as §4, §5
Series [6] relates to NBL01-1116 patient-derived neuroblastoma cells. The experiment in a line: RealTime-Glo MT cell viability assay. Particulars: Homo sapiens, Neuroblastoma cell. The protocol:
as §4, §5

Series [7] deals with NBL16-0118 patient-derived neuroblastoma cells. The experiment in a line: RealTime-Glo MT cell viability assay. The settings on record: Homo sapiens, Neuroblastoma cell. As for the experimental part: as §4, §5
For series [8], the system named is NBL27-0218A patient-derived neuroblastoma cells. Nature of the series: RealTime-Glo MT cell viability assay. Particulars: Homo sapiens, Neuroblastoma cell. As for the experimental part: as §4, §5
The test system of a further series is NLF. Nature of the series: RealTime-Glo MT cell viability assay. Particulars: Homo sapiens. As for the experimental part:
as §4, §5

Another series relates to SK-N-AS. The experiment in a line: RealTime-Glo MT cell viability assay. The settings on record: Homo sapiens. As for the experimental part:
as §4, §5

The next series relates to SK-N-SH. Nature of the series: RealTime-Glo MT cell viability assay. The settings on record: Homo sapiens. As for the experimental part:
as §4, §5

A further series has as its system HS5 (bone marrow origin). The experiment in a line: RealTime-Glo MT cell viability assay, noncancerous normal cells. Particulars: Homo sapiens. As for the experimental part:
as §4, §5
(§6) To evaluate this, noncancerous normal tissue-derived cell lines THLE3 and HS5 were utilized to evaluate toxicity and tolerability.

Another series relates to THLE3 (liver origin). Described as above. The settings on record: Homo sapiens. The protocol:
as §4, §5, §6

Series [9] deals with neuroblastoma cells across the panel of cell lines. The experiment in a line: Cell viability, IC50 range across the panel. Particulars: Homo sapiens, Neuroblastoma cell; range over cell lines, doses 0–100 µmol/L, viability every 24 for 72 hours; read-out: IC50 against neuroblastoma cells across the panel of cell lines. The protocol:
as §4, with “([…]” for “(SkanIT”, “software. To determine their efficacy in neuroblastoma, a panel of neuroblastoma cell lines including neuroblastoma patient-derived cell lines and noncancerous normal tissue-derived cell lines were treated with increasing doses of each antagonist (0-100 μmol/L), followed by real-time measurement of cell viability every 24 for 72 hours. […] Supplementary Table S2; Fig. 2A). […] Fig. 2A).” for “software.”

The test system of the next series is THLE3 and HS5. Nature of the series: Toxicity and tolerability in noncancerous normal tissue-derived cell lines. The settings on record: THLE3 and HS5 versus neuroblastoma cells. As for the experimental part:
as §4
To evaluate this, noncancerous normal tissue-derived cell lines THLE3 and HS5 were utilized to evaluate toxicity and tolerability. […] On the basis of their overall potency and specificity toward neuroblastoma cells over noncancerous normal cells, A4, B3, and BV6 were selected as the more efficacious antagonists to be studied further in subsequent experiments (Fig. 2A).

Structures can show the parent of a compound that is named as a salt.

On to `CC[C@@]1(O)C(=O)OCc2c1cc1n(c2=O)Cc2cc3c(CN(C)C)c(O)ccc3nc2-1` [Topotecan, Topotecan hydrochloride], for which the “AUC of dose–response curve” value came out at 164.6±8.6 nM* luminescence with BE(2)-C [1] and 352.1±28.9 nM* luminescence in the series on KELLY [2].
For `CN[C@@H](C)C(=O)N[C@H](C(=O)N1CCC[C@H]1C(=O)Nc1sc(-c2ncco2)nc1-c1ccccc1)C1CCCCC1` [CUDC-427], the IC50 was determined as 64.9 µM in the series on BE(2)-C [3] (24 hours); 60.9 µM with BE(2)-C [3] (48 hours); 55.6 µM in the series on BE(2)-C [3] (72 hours); 57.6 µM in the series with CHP212 (CHP212, 24 hours); 50.1 µM with CHP212 (CHP212, 48 hours); 50 µM with CHP212 (CHP212, 72 hours). In addition, the IC50 in the series on IMR-32 (IMR-32, 24 hours) was 59 µM; in the series with IMR-32 (IMR-32, 48 hours) it was 46.5 µM; in the series with IMR-32 (IMR-32, 72 hours) it was 40.6 µM; with KELLY [4] (24 hours) it was 32.5 µM; with KELLY [4] (48 hours), 29.5 µM; in the series with KELLY [4] (72 hours), 26 µM. The IC50 was 42 µM with NB1 (NB1, 24 hours); 38.1 µM with NB1 (NB1, 48 hours); 36.9 µM with NB1 (NB1, 72 hours); 33.5 µM in series [5] (NBL-07-0317, 24 hours); 33 µM in [5] (NBL-07-0317, 48 hours); 32 µM in series [5] (NBL-07-0317, 72 hours). The IC50 was determined as 40 µM in [6] (NBL01-1116, 24 hours); 38 µM in series [6] (NBL01-1116, 48 hours); 38 µM in series [6] (NBL01-1116, 72 hours); 35 µM in [7] (NBL16-0118, 24 hours); 32 µM in [7] (NBL16-0118, 48 hours); 30 µM in series [7] (NBL16-0118, 72 hours). For the same compound, the half-maximal inhibitory concentration (IC50) in [8] (24 hours) came to 32.8 µM; in [8] (48 hours), 30.4 µM; in series [8] (72 hours) it was 28.4 µM; with NLF (24 hours), 45 µM; in the series with NLF (48 hours), 38.6 µM; with NLF (72 hours) it was 30.2 µM. Besides, the IC50 worked out at 33.2 µM in the series with SK-N-AS (24 hours); 26.9 µM in the series with SK-N-AS (48 hours); 22.3 µM with SK-N-AS (72 hours); 54.1 µM in the series with SK-N-SH (24 hours); 40 µM in the series on SK-N-SH (48 hours); 33.5 µM with SK-N-SH (72 hours). Also, the 50% inhibitory concentration (IC50) is 29.9 µM in the series on HS5 (bone marrow origin) (HS5, 24 hours); 26.5 µM in the series on HS5 (bone marrow origin) (HS5, 48 hours); 23.8 µM with HS5 (bone marrow origin) (HS5, 72 hours); 40.2 µM in the series on THLE3 (liver origin) (THLE3, 24 hours); 28.8 µM with THLE3 (liver origin) (THLE3, 48 hours); 29.5 µM in the series on THLE3 (liver origin) (THLE3, 72 hours). In addition, the IC50 in series [9] was 20 to 60 µM. For the same compound, the “toxicity to noncancerous cells” value in the series with THLE3 and HS5 is “more toxic toward noncancerous cells than neuroblastoma cells”.

A word on the IC50: it is the concentration that gives 50% inhibition.
